Results from patent publication US8796466B2, “Hepatitis C virus inhibitors” (Bristol-Myers Squibb Company, priority 2009, dated 2014).
Like-named read-outs stand apart in the source and are kept apart here.

System: HCV 1b genotype
Assay: HCV Replicon assay (HCV 1b genotype)
Assay type: cell-based, Hepatitis C virus
Details: Hepatitis C virus, HCV 1b genotype replicon
Method: An HCV Replicon assay was utilized in the present disclosure, and was prepared, conducted and validated as described in commonly owned PCT/US2006/022197 and in O'Boyle et. al. Antimicrob Agents Chemother. 2005 April; 49(4):1346-53. Assay methods incorporating luciferase reporters have also been used as described (Apath.com).
HCV-neo replicon cells and replicon cells containing mutations in the NS5A region were used to test the currently described family of compounds. The compounds were determined to have more than 10-fold less inhibitory activity on cells containing mutations than wild-type cells. Thus, the compounds of the present disclosure can be effective in inhibiting the function of the HCV NS5A protein and are understood to be as effective in combinations as previously described in application PCT/US2006/022197 and commonly owned WO/04014852. Further, the compounds of the present disclosure can be effective against the HCV 1b genotype. It should also be understood that the compounds of the present disclosure can inhibit multiple genotypes of HCV. […] In one embodiment, compounds of the present disclosure are inhibitory versus 1a, 1b, 2a, 2b, 3a, 4a, and 5a genotypes.

[1] = class symbol, read-out: Range (EC50 values against HCV 1b)
[2] = Effective 50% inhibitory concentration, read-out: 1b EC50

SMILES | EC50 [1] [pM] | EC50 [2] [pM]
COC(=O)N[C@H](C(=O)N1CCOCC1c1ncc(-c2ccc(C#Cc3ccc(-c4cnc(C5COCCN5C(=O)[C@@H](NC(=O)OC)C(C)C)[nH]4)cc3)cc2)[nH]1)C(C)C (stereo in doubt) [Example N5, methyl ((1S)-1-(((3S)-3-(4-(4-((4-(2-((3S)-4-((2S)-2-((methoxycarbonyl)amino)-3-methylbutanoyl)-3-morpholinyl)-1H-imidazol-4-yl)phenyl)ethynyl)phenyl)-1H-imidazol-2-yl)-4-morpholinyl)carbonyl)-2-methylpropyl)carbamate] | 2 to 99 | 
COC(=O)N[C@@H](C(=O)N1CCC[C@H]1c1nc(-c2ccc(-c3ccc(-c4ccc(-c5c[nH]c([C@@H]6CCCN6C(=O)[C@H](NC(=O)OC)c6ccccc6)n5)cc4)cc3)cc2)c[nH]1)c1ccccc1 [Example D-1, dimethyl (1,1′:4′,1″-terphenyl-4,4″-diylbis(1H-imidazole-4,2-diyl(2S)-2,1-pyrrolidinediyl((1R)-2-oxo-1-phenyl-2,1-ethanediyl)))biscarbamate] | 2 to 99 | 
CN(C)[C@@H](C(=O)N1CCC[C@H]1c1nc(-c2ccc(-c3ccc(-c4ccc(-c5c[nH]c([C@@H]6CCCN6C(=O)[C@@H](c6ccccc6)N(C)C)n5)cc4)cc3)cc2)c[nH]1)c1ccccc1 [Example D-2, (1R)-2-((2S)-2-(4-(4″-(2-((2S)-1-((2R)-2-(dimethylamino)-2-phenylacetyl)-2-pyrrolidinyl)-1H-imidazol-5-yl)-1,1′:4′,1″-terphenyl-4-yl)-1H-imidazol-2-yl)-1-pyrrolidinyl)-N,N-dimethyl-2-oxo-1-phenylethanamine] | 100 to 990 | 
COC(=O)N[C@H](C(=O)N1CCC[C@H]1c1ncc(-c2ccc(C#Cc3ccc4c(c3)CCc3nc([C@@H]5CCCN5C(=O)[C@@H](NC(=O)OC)C(C)C)[nH]c3-4)cc2)[nH]1)C(C)C [Example D-3, methyl ((1S)-1-(((2S)-2-(4-(4-((2-((2S)-1-((2S)-2-((methoxycarbonyl)amino)-3-methylbutanoyl)-2-pyrrolidinyl)-4,5-dihydro-1H-naphtho[1,2-d]imidazol-7-yl)ethynyl)phenyl)-1H-imidazol-2-yl)-1-pyrrolidinyl)carbonyl)-2-methylpropyl)carbamate] | 2 to 99 | 6
COC(=O)N[C@@H](C(=O)N1CCC[C@H]1c1ncc(-c2ccc(C#Cc3ccc4c(c3)CCc3nc([C@@H]5CCCN5C(=O)[C@H](NC(=O)OC)c5ccccc5)[nH]c3-4)cc2)[nH]1)c1ccccc1 [Example D-4, methyl ((1R)-2-((2S)-2-(4-(4-((2-((2S)-1-((2R)-2-((methoxycarbonyl)amino)-2-phenylacetyl)-2-pyrrolidinyl)-4,5-dihydro-1H-naphtho[1,2-d]imidazol-7-yl)ethynyl)phenyl)-1H-imidazol-2-yl)-1-pyrrolidinyl)-2-oxo-1-phenylethyl)carbamate] | 2 to 99 | 
COC(=O)N[C@@H](C(=O)N1CCC[C@H]1c1ncc(-c2ccc(C#Cc3ccc4c(ccc5nc([C@@H]6CCCN6C(=O)[C@H](NC(=O)OC)c6ccccc6)[nH]c54)c3)cc2)[nH]1)c1ccccc1 [Example D-5, methyl ((1R)-2-((2S)-2-(7-((4-(2-((2S)-1-((2R)-2-((methoxycarbonyl)amino)-2-phenylacetyl)-2-pyrrolidinyl)-1H-imidazol-4-yl)phenyl)ethynyl)-1H-naphtho[1,2-d]imidazol-2-yl)-1-pyrrolidinyl)-2-oxo-1-phenylethyl)carbamate] | 2 to 99 | 
COC(=O)N[C@H](C(=O)N1CCC[C@H]1c1ncc(-c2ccc(C#Cc3ccc4c(ccc5nc([C@@H]6CCCN6C(=O)[C@@H](NC(=O)OC)C(C)C)[nH]c54)c3)cc2)[nH]1)C(C)C [Example D-6, methyl ((1S)-1-(((2S)-2-(4-(4-((2-((2S)-1-((2S)-2-((methoxycarbonyl)amino)-3-methylbutanoyl)-2-pyrrolidinyl)-1H-naphtho[1,2-d]imidazol-7-yl)ethynyl)phenyl)-1H-imidazol-2-yl)-1-pyrrolidinyl)carbonyl)-2-methylpropyl)carbamate] | 2 to 99 | 
COC(=O)N[C@H](C(=O)N1[C@@H]2C[C@@H]2C[C@H]1c1ncc(-c2ccc(C#Cc3ccc4c(ccc5nc([C@@H]6C[C@H]7C[C@H]7N6C(=O)[C@@H](NC(=O)OC)C(C)C)[nH]c54)c3)cc2)[nH]1)C(C)C [Example D-7, methyl ((1S)-1-(((1R,3S,5R)-3-(4-(4-((2-((1R,3S,5R)-2-((2S)-2-((methoxycarbonyl)amino)-3-methylbutanoyl)-2-azabicyclo[3.1.0]hex-3-yl)-1H-naphtho[1,2-d]imidazol-7-yl)ethynyl)phenyl)-1H-imidazol-2-yl)-2-azabicyclo[3.1.0]hex-2-yl)carbonyl)-2-methylpropyl)carbamate] | 2 to 99 | 
COC(=O)N[C@@H](C(=O)N1[C@@H]2C[C@@H]2C[C@H]1c1ncc(-c2ccc(C#Cc3ccc4c(ccc5nc([C@@H]6C[C@H]7C[C@H]7N6C(=O)[C@H](NC(=O)OC)c6ccccc6)[nH]c54)c3)cc2)[nH]1)c1ccccc1 [Example D-8, methyl ((1R)-2-((1R,3S,5R)-3-(7-((4-(2-((1R,3S,5R)-2-((2R)-2-((methoxycarbonyl)amino)-2-phenylacetyl)-2-azabicyclo[3.1.0]hex-3-yl)-1H-imidazol-4-yl)phenyl)ethynyl)-1H-naphtho[1,2-d]imidazol-2-yl)-2-azabicyclo[3.1.0]hex-2-yl)-2-oxo-1-phenylethyl)carbamate] | 2 to 99 | 5
COC(=O)N[C@H](C(=O)N1[C@@H]2C[C@@H]2C[C@H]1c1nc2c([nH]1)-c1ccc(C#Cc3ccc4c(c3)CCc3nc([C@@H]5C[C@H]6C[C@H]6N5C(=O)[C@@H](NC(=O)OC)C(C)C)[nH]c3-4)cc1CC2)C(C)C [Example D-9, methyl ((1S)-1-(((1R,3S,5R)-3-(7-((2-((1R,3S,5R)-2-((2S)-2-((methoxycarbonyl)amino)-3-methylbutanoyl)-2-azabicyclo[3.1.0]hex-3-yl)-4,5-dihydro-1H-naphtho[1,2-d]imidazol-7-yl)ethynyl)-4,5-dihydro-1H-naphtho[1,2-d]imidazol-2-yl)-2-azabicyclo[3.1.0]hex-2-yl)carbonyl)-2-methylpropyl)carbamate] | 2 to 99 | 
COC(=O)N[C@H](C(=O)N1[C@@H]2C[C@@H]2C[C@H]1c1nc2ccc3cc(C#Cc4ccc5c(ccc6nc([C@@H]7C[C@H]8C[C@H]8N7C(=O)[C@@H](NC(=O)OC)C(C)C)[nH]c65)c4)ccc3c2[nH]1)C(C)C [Example D-10, methyl ((1S)-1-(((1R,3S,5R)-3-(7-((2-((3S)-2-((2S)-2-((methoxycarbonyl)amino)-3-methylbutanoyl)-2-azabicyclo[3.1.0]hex-3-yl)-1H-naphtho[1,2-d]imidazol-7-yl)ethynyl)-1H-naphtho[1,2-d]imidazol-2-yl)-2-azabicyclo[3.1.0]hex-2-yl)carbonyl)-2-methylpropyl)carbamate] | 2 to 99 | 
COC(=O)N[C@H](C(=O)N1[C@@H]2C[C@@H]2C[C@H]1c1nc2ccc3cc(C#Cc4ccc5c(ccc6nc([C@@H]7C[C@H]8C[C@H]8N7C(=O)[C@@H](NC(=O)OC)C7CCOCC7)[nH]c65)c4)ccc3c2[nH]1)C(C)C [Example D-11, methyl ((1S)-2-((1R,3S,5R)-3-(7-((2-((1R,3S,5R)-2-((2S)-2-((methoxycarbonyl)amino)-3-methylbutanoyl)-2-azabicyclo[3.1.0]hex-3-yl)-1H-naphtho[1,2-d]imidazol-7-yl)ethynyl)-1H-naphtho[1,2-d]imidazol-2-yl)-2-azabicyclo[3.1.0]hex-2-yl)-2-oxo-1-(tetrahydro-2H-pyran-4-yl)ethyl)carbamate] | 2 to 99 | 
